Measured values published in the NIST ThermoML archive (doi:10.1021/je700647x).

Experiments:
[1] = Ring tensiometer
[2] = xn = mol fraction of the nth substance listed; conditions: Ring tensiometer

CN(CCO)CCO [N-methyldiethanolamine]
[1]
Conditions	surface tension liquid-gas [mN/m]
288.15 K	39.99
293.15 K	39.26
298.15 K	38.92
303.15 K	38.08
308.15 K	37.63
313.15 K	37.25

CN(CCO)CCO [N-methyldiethanolamine] + CCO
surface tension liquid-gas [mN/m], [2]
Conditions	288.15 K	293.15 K	298.15 K	303.15 K	308.15 K	313.15 K
x1 = 0.0253	23.45	23.11	22.79	22.49	22.16	21.92
x1 = 0.0321	23.58	23.24	22.92	22.63	22.27	22.04
x1 = 0.1033	24.92	24.59	24.32	24.06	23.77	23.58
x1 = 0.1629	26.03	25.7	25.45	25.26	24.94	24.81
x1 = 0.1705	26.18	25.83	25.59	25.38	25.08	24.98
x1 = 0.2474	27.58	27.24	27.02	26.79	26.53	26.44
x1 = 0.3713	29.85	29.47	29.28	28.95	28.75	28.63
x1 = 0.4806	31.8	31.4	31.18	30.84	30.62	30.49
x1 = 0.5506	33.02	32.6	32.39	32.01	31.78	31.66
x1 = 0.7035	35.58	35.06	34.92	34.48	34.24	34.07
x1 = 0.7452	36.25	35.71	35.58	35.08	34.84	34.66
x1 = 0.8227	37.51	36.91	36.71	36.09	35.8	35.57
x1 = 0.9368	39.11	38.42	38.1	37.39	37	36.73
x1 = 1	39.99	39.26	38.92	38.08	37.63	37.25

CCO [ethanol]
Conditions	surface tension liquid-gas [mN/m]
[1], 298.15 K	21.85

CCO [ethanol] + CN(CCO)CCO
Conditions	surface tension liquid-gas [mN/m]
[2], 298.15 K, x2 = 0	21.85

CCO [ethanol] + OCCN(CCO)CCO
Conditions	surface tension liquid-gas [mN/m]
[2], 298.15 K, x2 = 0	21.85

OCCN(CCO)CCO [triethanolamine]
[1]
Conditions	surface tension liquid-gas [mN/m]
288.15 K	47.64
293.15 K	46.77
298.15 K	45.88
303.15 K	45.16
308.15 K	44.42
313.15 K	43.4

OCCN(CCO)CCO [triethanolamine] + CCO
surface tension liquid-gas [mN/m], [2]
Conditions	x1 = 0.0795	x1 = 0.1461	x1 = 0.2209	x1 = 0.3266	x1 = 0.4581	x1 = 0.6263	x1 = 0.7725	x1 = 0.8489	x1 = 0.9304	x1 = 1
288.15 K	24.1	25.4	27.12	29.68	33.17	37.65	41.56	43.57	45.78	47.64
293.15 K	23.69	25.02	26.77	29.34	32.72	37.11	40.89	42.86	44.96	46.77
298.15 K	23.32	24.7	26.42	28.97	32.29	36.57	40.24	42.16	44.22	45.88
303.15 K	23.02	24.41	26.11	28.61	31.87	36.02	39.61	41.47	43.47	45.16
308.15 K	22.71	24.12	25.78	28.21	31.42	35.48	39	40.83	42.77	44.42
313.15 K	22.35	23.81	25.46	27.79	30.89	34.82	38.21	39.97	41.84	43.4
